From ChEMBL document CHEMBL1128364 (J Med Chem, 1995)

How the values were obtained:
[1] = biological target: Vasopressin V1a receptor (Rattus norvegicus) (UniProt P30560); test: (§1) Anti-vasopressor activity at V1a receptor
Rattus norvegicus [2] = test: (§2) In vivo anti-oxytocic activity was determined.; assay type: functional
Rattus norvegicus [3] = test: In vivo activity for the anti-oxytocic activity.; assay type: functional, organism-based; conditions: read-out: pA2 (converted)
Vasopressin V1a receptor = Vasopressin V1a receptor (Rattus norvegicus, UniProt P30560); test: as §1; conditions: for Kb: read-out: pA2 (converted)
Vasopressin V1a receptor, sequence (P30560 whole entry): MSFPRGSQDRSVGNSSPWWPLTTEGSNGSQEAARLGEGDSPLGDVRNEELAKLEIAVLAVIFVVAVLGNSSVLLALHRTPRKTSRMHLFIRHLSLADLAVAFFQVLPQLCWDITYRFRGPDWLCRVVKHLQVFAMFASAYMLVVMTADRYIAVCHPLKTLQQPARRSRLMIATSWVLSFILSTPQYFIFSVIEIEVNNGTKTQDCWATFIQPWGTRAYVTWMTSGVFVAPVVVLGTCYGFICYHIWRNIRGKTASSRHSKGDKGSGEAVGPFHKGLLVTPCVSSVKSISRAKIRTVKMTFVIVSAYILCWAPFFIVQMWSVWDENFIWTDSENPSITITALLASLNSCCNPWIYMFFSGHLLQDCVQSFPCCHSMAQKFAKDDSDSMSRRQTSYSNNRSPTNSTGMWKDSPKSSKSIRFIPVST

Oxytocin receptor [4] = biological target: T1, Oxytocin receptor (Rattus norvegicus, UniProt P70536); test: In vitro antioxycic activity with out Mg2+.; conditions: read-out: pA2 (converted)
T1 sequence (P70536 whole entry): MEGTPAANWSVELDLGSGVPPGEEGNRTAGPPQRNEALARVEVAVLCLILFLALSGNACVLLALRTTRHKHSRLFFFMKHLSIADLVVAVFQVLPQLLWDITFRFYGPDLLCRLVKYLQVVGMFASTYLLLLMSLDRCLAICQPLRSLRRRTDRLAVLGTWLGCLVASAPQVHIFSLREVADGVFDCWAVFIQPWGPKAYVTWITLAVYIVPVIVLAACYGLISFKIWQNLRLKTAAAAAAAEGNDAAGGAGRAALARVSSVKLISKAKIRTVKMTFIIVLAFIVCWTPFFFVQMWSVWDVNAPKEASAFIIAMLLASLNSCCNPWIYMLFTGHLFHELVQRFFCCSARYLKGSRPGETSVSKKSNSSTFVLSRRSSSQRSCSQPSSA

Oxytocin receptor [5] = biological target: T1, Oxytocin receptor; test: In vitro anti-oxytocic activity with 0.5 mM Mg2+.; conditions: for Kb: read-out: pA2 (converted)
Rattus norvegicus [6] = test: as §2; assay type: functional, organism-based; conditions: read-out: pA2 (converted)
Vasopressin V2 receptor = Vasopressin V2 receptor (Rattus norvegicus, UniProt Q00788); test: (§3) Antidiuretic activity at V2 receptor; assay type: tissue-based, Urine; conditions: read-out: pA2 (converted)
Vasopressin V2 receptor, sequence (Q00788 whole entry): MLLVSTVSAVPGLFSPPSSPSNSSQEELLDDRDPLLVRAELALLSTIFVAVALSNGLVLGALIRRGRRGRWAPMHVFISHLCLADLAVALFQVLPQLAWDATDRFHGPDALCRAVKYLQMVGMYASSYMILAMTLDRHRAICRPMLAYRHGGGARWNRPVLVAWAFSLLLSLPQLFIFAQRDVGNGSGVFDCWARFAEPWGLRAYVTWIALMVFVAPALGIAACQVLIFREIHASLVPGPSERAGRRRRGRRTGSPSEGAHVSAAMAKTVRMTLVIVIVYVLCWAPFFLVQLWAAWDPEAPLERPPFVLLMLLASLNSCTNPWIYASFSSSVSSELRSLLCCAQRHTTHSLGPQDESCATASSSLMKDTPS

Oxytocin receptor [7] = biological target: T1, Oxytocin receptor; test: In vitro anti-oxytocic activity with out Mg2+.; conditions: for Kb: read-out: pA2 (converted)
[8] = biological target: T2, Oxytocin receptor (Rattus norvegicus) (UniProt P70536); test: Compound was evaluated for the oxytocic activity with 0.5 mM Mg2+.
T2 sequence (whole entry): T1 sequence (P70536 whole entry)

[9] = biological target: Vasopressin V2 receptor (Rattus norvegicus) (UniProt Q00788); test: Antidiuretic activity at V2 receptor.; conditions: Urine
Vasopressin V2 receptor (Rattus norvegicus), sequence (Q00788 whole entry): as above

[10] = biological target: T2, Oxytocin receptor (Rattus norvegicus); test: Compound was evaluated for the oxytocic activity with out Mg2+.
[11] = biological target: Vasopressin V2 receptor (Rattus norvegicus) (UniProt Q00788); test: as §3; assay type: tissue-based; conditions: Urine

Vasopressin V1a receptor (Rattus norvegicus), sequence (P30560 whole entry, looked up): as the sequence (P30560 whole entry) above

## CC[C@H](C)[C@@H]1NC(=O)[C@@H](Cc2cc3ccccc3[nH]2)NC(=O)CC2(CCCCC2)SSC[C@@H](C(=O)N2CCC[C@H]2C(=O)N[C@@H](CCCN=C(N)N)C(=O)NCC(N)=O)NC(=O)[C@H](CC(N)=O)NC(=O)[C@H](CCC(N)=O)NC1=O
[1]
  ED: 2 nM/kg

## CC[C@H](C)[C@@H]1NC(=O)[C@H](Cc2ccc(OC)cc2)NC(=O)CC2(CCCCC2)SSC[C@H](C(=O)N2CCC[C@H]2C(=O)N[C@@H](CCCN)C(=O)N[C@@H](Cc2ccc(O)cc2)C(N)=O)NC(=O)[C@H](CC(N)=O)NC(=O)[C@H]([C@@H](C)O)NC1=O [listing 1 of 2 here]
Rattus norvegicus [2]
  ED: 5.63 nM/kg

## CCOc1ccc(C[C@H]2NC(=O)CC3(CCCCC3)SSC[C@H](C(=O)N3CCC[C@H]3C(=O)N[C@@H](CCCN=C(N)N)C(=O)NCC(N)=O)NC(=O)[C@H](CC(N)=O)NC(=O)[C@H](C(C)C)NC(=O)[C@H](Cc3ccccc3)NC2=O)cc1
Rattus norvegicus [3]
  Kb: 69.2 nM
Vasopressin V1a receptor
  Kb: 8.71 nM

## CC[C@H](C)[C@@H]1NC(=O)[C@H](Cc2ccc(OC)cc2)NC(=O)CC2(CCCCC2)SSC[C@H](C(=O)N2CCC[C@H]2C(=O)N[C@@H](CCCN)C(=O)N[C@@H](Cc2ccc(O)cc2)C(N)=O)NC(=O)[C@H](CC(N)=O)NC(=O)[C@H]([C@@H](C)O)NC1=O [listing 2 of 2 here]
Oxytocin receptor [4]
  Kb: 11 nM
Oxytocin receptor [5]
  Kb: 38.9 nM
Rattus norvegicus [6]
  Kb: 83.2 nM
Vasopressin V1a receptor
  Kb: 148 nM
Vasopressin V2 receptor
  Kb: 3160 nM

## CC[C@H](C)[C@@H]1NC(=O)[C@H](Cc2ccc(OC)cc2)NC(=O)CC2(CCCCC2)SSC[C@H](C(=O)N2CCC[C@H]2C(=O)N[C@@H](CCCN)C(=O)O)NC(=O)[C@H](CC(N)=O)NC(=O)[C@H]([C@@H](C)O)NC1=O
Oxytocin receptor [5]
  Kb: 25.1 nM
Oxytocin receptor [7]
  Kb: 18.6 nM
Rattus norvegicus [6]
  Kb: 138 nM
Vasopressin V1a receptor
  Kb: 275 nM
Vasopressin V2 receptor
  Kb: 3980 nM

## N=C(N)NCCC[C@H](NC(=O)[C@@H]1CCCN1C(=O)[C@@H]1CSSC[C@H](N)C(=O)N[C@@H](Cc2ccc(O)cc2)C(=O)N[C@@H](Cc2ccccc2)C(=O)N[C@@H](CCC(N)=O)C(=O)N[C@@H](CC(N)=O)C(=O)N1)C(=O)NCC(N)=O
[8]
  Oxytocic activity: 25.5 U mg-1
[9]
  Antidiuretic activity: 323 U mg-1

## CC[C@H](C)[C@@H]1NC(=O)[C@@H](Cc2c[nH]c3ccccc23)NC(=O)CC2(CCCCC2)SSC[C@@H](C(=O)N2CCC[C@H]2C(=O)N[C@@H](CCCN)C(=O)NCC(N)=O)NC(=O)[C@H](CC(N)=O)NC(=O)[C@H]([C@@H](C)O)NC1=O [listing 1 of 2 here]
Rattus norvegicus [2]
  ED: 3.08 nM/kg

## CC[C@H](C)[C@@H]1NC(=O)[C@H](Cc2ccc(O)cc2)NC(=O)[C@H](N)CSSC[C@H](C(=O)N2CCC[C@H]2C(=O)N[C@@H](CC(C)C)C(=O)NCC(N)=O)NC(=O)[C@H](CC(N)=O)NC(=O)[C@H](CCC(N)=O)NC1=O
[10]
  Oxytocic activity: 0.62 U mg-1
[9]
  Antidiuretic activity: < 0.002 U mg-1

## CC[C@H](C)[C@@H]1NC(=O)[C@H](Cc2ccc(O)cc2)N(C)C(=O)CC2(CCCCC2)SSC[C@H](C(=O)N2CCC[C@H]2C(=O)N[C@@H](CCCN)C(=O)NCC(N)=O)NC(=O)[C@H](CC(N)=O)NC(=O)[C@H](CCC(N)=O)NC1=O
[1]
  ED: 3.73 nM/kg

## CC[C@H](C)[C@@H]1NC(=O)[C@H](Cc2ccc(OC)cc2)NC(=O)CC2(CCCCC2)SSC[C@@H](C(=O)N2CCC[C@H]2C(=O)N[C@@H](CCCN)C(=O)NCC(N)=O)NC(=O)[C@H](CC(N)=O)NC(=O)[C@H](CCC(N)=O)NC1=O
Oxytocin receptor [4]
  Kb: 3.02 nM
Oxytocin receptor [5]
  Kb: 13.2 nM
Vasopressin V1a receptor
  Kb: 11 nM
[1]
  ED: 0.8 nM/kg
[11]
  Antidiuretic activity: 0.01 U mg-1

## CC[C@H](C)[C@@H]1NC(=O)[C@H](Cc2ccc(OC)cc2)NC(=O)CC2(CCCCC2)SSC[C@H](C(=O)N2CCC[C@H]2C(=O)N[C@@H](CCCN)C(=O)NCC(N)=O)NC(=O)[C@H](CC(N)=O)NC(=O)[C@H](CCC(N)=O)NC1=O
Oxytocin receptor [5]
  Kb: 36.3 nM
Oxytocin receptor [7]
  Kb: 22.4 nM
Rattus norvegicus [6]
  Kb: 46.8 nM
Vasopressin V1a receptor
  Kb: 56.2 nM
Vasopressin V2 receptor
  Kb: 1260 nM

## CC[C@H](C)[C@@H]1NC(=O)[C@@H](Cc2c[nH]c3ccccc23)NC(=O)CC2(CCCCC2)SSC[C@@H](C(=O)N2CCC[C@H]2C(=O)N[C@@H](CCCN)C(=O)NCC(N)=O)NC(=O)[C@H](CC(N)=O)NC(=O)[C@H]([C@@H](C)O)NC1=O [listing 2 of 2 here]
Oxytocin receptor [5]
  pA2: 7.64
Oxytocin receptor [7]
  pA2: 8.02
Rattus norvegicus [6]
  Kb: 45.7 nM
Vasopressin V1a receptor
  pA2: 5.43

## CC[C@H](C)[C@@H]1NC(=O)[C@H](Cc2ccc(OC)cc2)NC(=O)CC2(CCCCC2)SSC[C@@H](C(=O)N2CCC[C@H]2C(=O)N[C@@H](CCCN)C(=O)O)NC(=O)[C@H](CC(N)=O)NC(=O)[C@H]([C@@H](C)O)NC1=O
Oxytocin receptor [5]
  Kb: 5.75 nM
Oxytocin receptor [7]
  Kb: 12.9 nM
Vasopressin V1a receptor
  Kb: 331 nM
[1]
  ED: 23 nM/kg
Vasopressin V2 receptor
  Kb: 3160 nM

## NC(=O)CC[C@@H]1NC(=O)[C@H](Cc2ccccc2)NC(=O)[C@H](Cc2ccc(O)cc2)NC(=O)[C@H](N)CSSC[C@H](C(=O)N2CCC[C@H]2C(=O)N[C@@H](CCCN=C(N)N)C(=O)NCC(N)=O)NC(=O)[C@H](CC(N)=O)NC1=O
[9]
  Antidiuretic activity: 0.82 U mg-1
